Data on 35 compounds can be found in patent US20080021026A1, “BENZOTHIOPHENE INHIBITORS OF RHO KINASE” (priority 2006, published 2008).

For experiment [1], the target named is T1, recombinant N-terminal GST-tagged human Rho kinase 1 (ROCK1, amino acids 1-535) (Homo sapiens, UniProt Q13464).
T1 construct: ROCK1, amino acids 1-535; purchased Invitrogen Inc. PV-3691
The experiment can be described thus: In vitro Rho kinase assay (luciferase-based ATP consumption), ROCK1. The format is biochemical. The settings on record: recombinant GST-tagged human ROCK1, luciferase-based ATP consumption; read-out: ROCK1 IC50. A digest of the protocol: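 GST-ROCK1 (aa 1-535) at 0.82 μg/ml with 100 μg/ml S6 peptide and 3 µM ATP in Tris pH 7.5 buffer with MgCl2, CaCl2, EGTA, BSA; compound added after reaction start, 2 h at 30 °C. Remaining ATP read by luciferase luminescence; efficacy as percent of H-1152P positive control.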

The target in experiment [2] is T2, recombinant N-terminal GST-tagged human Rho kinase 2 (ROCK2, amino acids 1-552) (Homo sapiens, UniProt O75116).
T2 construct: ROCK2, amino acids 1-552; purchased Invitrogen Inc. PV3759
T2 sequence (O75116 1-552): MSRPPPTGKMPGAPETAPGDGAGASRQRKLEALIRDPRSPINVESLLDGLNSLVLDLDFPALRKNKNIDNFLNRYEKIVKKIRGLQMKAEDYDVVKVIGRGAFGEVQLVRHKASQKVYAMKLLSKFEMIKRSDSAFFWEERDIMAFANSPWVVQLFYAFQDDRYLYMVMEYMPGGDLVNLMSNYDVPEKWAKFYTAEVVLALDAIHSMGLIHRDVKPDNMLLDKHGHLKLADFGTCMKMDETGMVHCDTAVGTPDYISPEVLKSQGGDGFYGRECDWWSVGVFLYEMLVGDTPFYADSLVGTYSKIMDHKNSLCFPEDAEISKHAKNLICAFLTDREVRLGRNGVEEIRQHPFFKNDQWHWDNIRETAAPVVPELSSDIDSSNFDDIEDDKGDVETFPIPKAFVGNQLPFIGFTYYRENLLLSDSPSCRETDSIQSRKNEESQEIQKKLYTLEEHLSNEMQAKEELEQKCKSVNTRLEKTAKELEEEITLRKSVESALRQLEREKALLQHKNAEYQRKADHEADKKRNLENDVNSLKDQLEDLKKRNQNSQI
The experiment can be described thus: In vitro Rho kinase assay (luciferase-based ATP consumption), ROCK2. It counts as biochemical. The conditions noted are these: recombinant GST-tagged human ROCK2, luciferase-based ATP consumption; read-out: ROCK2 IC50. In outline: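 GST-ROCK2 (aa 1-552, 0.82 μg/ml) with 100 μg/ml S6 peptide and 3 µM ATP in Tris pH 7.5 buffer with MgCl2/CaCl2/EGTA/BSA, compound added just after reaction start, 2 h at 30 °C. Remaining ATP read by luciferase luminescence. Efficacy expressed as percentage of H-1152P positive control.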

T1 sequence (Q13464 1-535): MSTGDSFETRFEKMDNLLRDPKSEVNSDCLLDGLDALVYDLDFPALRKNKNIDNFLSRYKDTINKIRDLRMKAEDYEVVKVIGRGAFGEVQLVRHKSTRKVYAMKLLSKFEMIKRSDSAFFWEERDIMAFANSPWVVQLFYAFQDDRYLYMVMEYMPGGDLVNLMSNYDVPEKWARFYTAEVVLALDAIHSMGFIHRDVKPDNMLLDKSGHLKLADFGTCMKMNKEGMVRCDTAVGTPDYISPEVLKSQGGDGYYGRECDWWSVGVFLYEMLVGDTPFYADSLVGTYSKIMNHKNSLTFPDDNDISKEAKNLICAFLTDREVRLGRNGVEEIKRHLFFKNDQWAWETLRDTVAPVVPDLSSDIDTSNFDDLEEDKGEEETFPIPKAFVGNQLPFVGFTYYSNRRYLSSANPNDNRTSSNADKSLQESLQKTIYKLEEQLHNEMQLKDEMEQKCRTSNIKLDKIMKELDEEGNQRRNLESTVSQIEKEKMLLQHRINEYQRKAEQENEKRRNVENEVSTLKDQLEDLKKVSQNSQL

In general, IC50 refers to the concentration that gives 50% inhibition. For the compound `Cc1c(-c2ccnc(N)n2)sc2ccc(Nc3cccc(NC(=O)c4ccc(C(=O)O)cc4)c3)cc12` [Example 63, 4-(3-(2-(2-Aminopyrimidin-4-yl)-3-methylbenzo[b]thiophen-5-ylamino)phenylcarbamoyl)benzoic acid], the IC50 in experiment [1] and in experiment [2] was below 5 µM each time.

On to `Cc1c(-c2ccnc(N)n2)sc2ccc(Nc3ccccn3)cc12` [Example 64, 4-(3-Methyl-5-(pyridin-2-ylamino)benzo[b]thiophen-2-yl)pyrimidin-2-amine], for which the IC50 in experiment [1] and in experiment [2] was below 5 µM in each case.

As to `Cc1c(-c2ccnc(N)n2)sc2ccc(Nc3cccnc3)cc12` [Example 65, 4-(3-Methyl-5-(pyridin-3-ylamino)benzo[b]thiophen-2-yl)pyrimidin-2-amine], the IC50 in experiment [1] and in experiment [2] was below 5 µM throughout.

Regarding `Cc1c(-c2ccnc(N)n2)sc2ccc(Nc3ccncc3)cc12` [Example 66, 4-(3-Methyl-5-(pyridin-4-ylamino)benzo[b]thiophen-2-yl)pyrimidin-2-amine], the IC50 in experiment [1] and in experiment [2] was below 5 µM each time.

As for `COc1cncc(Nc2ccc3sc(-c4ccnc(N)n4)c(C)c3c2)c1` [Example 67, 4-(5-(5-Methoxypyridin-3-ylamino)-3-methylbenzo[b]thiophen-2-yl)pyrimidin-2-amine], the IC50 in experiment [1] and in experiment [2] was below 5 µM throughout.

For the compound `Cc1c(-c2ccnc(N)n2)sc2ccc(Nc3cncc(O)c3)cc12` [Example 68, 5-(2-(2-Aminopyrimidin-4-yl)-3-methylbenzo[b]thiophen-5-ylamino)pyridin-3-ol], the IC50 in experiment [1] and in experiment [2] was below 5 µM each time.

Regarding `Cc1c(-c2ccnc(N)n2)sc2ccc(Nc3ccccc3)cc12` [Example 69, 4-(3-Methyl-5-(phenylamino)benzo[b]thiophen-2-yl)pyrimidin-2-amine], the IC50 in experiment [1] and in experiment [2] was below 5 µM in each case.

`Cc1c(-c2ccnc(N)n2)sc2ccc(Nc3ccc4c(c3)OCO4)cc12` [Example 70, 4-(5-(Benzo[d][1,3]dioxol-5-ylamino)-3-methylbenzo[b]thiophen-2-yl)pyrimidin-2-amine]: the IC50 in experiment [1] and in experiment [2] was below 5 µM each time.

Consider `Cc1c(-c2ccnc(N)n2)sc2ccc(Nc3cncc(C(=O)O)c3)cc12` [Example 71, 5-(2-(2-Aminopyrimidin-4-yl)-3-methylbenzo[b]thiophen-5-ylamino)nicotinic acid], for which the 50% inhibitory concentration (IC50) in experiment [1] and in experiment [2] was below 5 µM in each case.

Take `Cc1c(-c2ccnc(N)n2)sc2ccc(N)cc12` [Example 72, 4-(5-Amino-3-methylbenzo[b]thiophen-2-yl)pyrimidin-2-amine]: the IC50 in experiment [1] and in experiment [2] was below 5 µM each time.

On to `COc1cc(C(=O)Nc2ccc3sc(-c4ccnc(N)n4)c(C)c3c2)cc(OC)c1OC` [Example 73, N-(2-(2-Aminopyrimidin-4-yl)-3-methylbenzo[b]thiophen-5-yl)-3,4,5-trimethoxy benzamide], for which the IC50 in experiment [1] and in experiment [2] was above 5 µM throughout.

Take `COc1nccc(Nc2ccc3sc(-c4ccnc(N)n4)c(C)c3c2)n1` [Example 74, 4-(5-(2-Methoxypyrimidin-4-ylamino)-3-methylbenzo[b]thiophen-2-yl)pyrimidin-2-amine]: the IC50 in experiment [1] and in experiment [2] was below 5 µM in each case.

Turning to `Cc1c(-c2ccnc(N)n2)sc2ccc(Nc3ccnc(O)n3)cc12` [Example 75, 4-(2-(2-Aminopyrimidin-4-yl)-3-methylbenzo[b]thiophen-5-ylamino)pyrimidin-2-ol], the half-maximal inhibitory concentration (IC50) in experiment [1] and in experiment [2] was below 5 µM in each case.

In the case of `CNc1nccc(Nc2ccc3sc(-c4ccnc(N)n4)c(C)c3c2)n1` [Example 76, N^4-(2-(2-Aminopyrimidin-4-yl)-3-methylbenzo[b]thiophen-5-yl)-N^2-methyl pyrimidine-2,4-diamine], the IC50 in experiment [1] and in experiment [2] was below 5 µM throughout.

For `CCN(CC)CCNc1nccc(Nc2ccc3sc(-c4ccnc(N)n4)c(C)c3c2)n1` [Example 77, N^4-(2-(2-Aminopyrimidin-4-yl)-3-methylbenzo[b]thiophen-5-yl)-N^2-(2-(diethylamino)ethyl)pyrimidine-2,4-diamine], the IC50 in experiment [1] and in experiment [2] was below 5 µM in each case.

Consider `COc1cccc(N(C)c2ccc3sc(-c4ccnc(N)n4)c(C)c3c2)c1` [Example 78, 4-(5-((3-Methoxyphenyl)(methyl)amino)-3-methylbenzo[b]thiophen-2-yl)pyrimidin-2-amine], for which the IC50 in experiment [1] and in experiment [2] was below 5 µM throughout.

On to `Cc1c(-c2ccnc(N)n2)sc2ccc(Oc3ccccc3)cc12` [Example 79, 4-(3-Methyl-5-phenoxybenzo[b]thiophen-2-yl)pyrimidin-2-amine], for which the IC50 in experiment [1] and in experiment [2] was below 5 µM each time.

For the compound `Cc1c(-c2ccnc(N)n2)sc2ccc(Oc3cccc([N+](=O)[O-])c3)cc12` [Example 80, 4-(3-Methyl-5-(3-nitrophenoxy)benzo[b]thiophen-2-yl)pyrimidin-2-amine], the IC50 in experiment [1] and in experiment [2] was below 5 µM each time.

On to `COc1cccc(Oc2ccc3sc(-c4ccnc(N)n4)c(C)c3c2)c1` [Example 81, 4-(5-(3-Methoxyphenoxy)-3-methylbenzo[b]thiophen-2-yl)pyrimidin-2-amine], for which the half-maximal inhibitory concentration (IC50) in experiment [1] and in experiment [2] was below 5 µM in each case.

For `COc1cccc(Sc2ccc3sc(-c4ccnc(N)n4)c(C)c3c2)c1` [Example 83, 4-(5-(3-Methoxyphenylthio)-3-methylbenzo[b]thiophen-2-yl)pyrimidin-2-amine], the IC50 in experiment [1] and in experiment [2] was below 5 µM in each case.

With `Cc1c(-c2ccnc(N)n2)sc2ccc(Sc3cccc(O)c3)cc12` [Example 84, 3-(2-(2-Aminopyrimidin-4-yl)-3-methylbenzo[b]thiophen-5-ylthio)phenol], the IC50 in experiment [1] and in experiment [2] was below 5 µM throughout.

As to `COC(=O)c1cccc(Sc2ccc3sc(-c4ccnc(N)n4)c(C)c3c2)c1` [Example 85, Methyl 3-(2-(2-aminopyrimidin-4-yl)-3-methylbenzo[b]thiophen-5-ylthio)benzoate], the IC50 in experiment [1] and in experiment [2] was below 5 µM in each case.

Turning to `Cc1c(-c2ccnc(N)n2)sc2ccc(Sc3cccc(C(=O)O)c3)cc12` [Example 86, 3-(2-(2-Aminopyrimidin-4-yl)-3-methylbenzo[b]thiophen-5-ylthio)benzoic acid], the IC50 in experiment [1] and in experiment [2] was below 5 µM throughout.

Turning to `Cc1c(-c2ccnc(N)n2)sc2ccc(C(=O)c3ccccc3)cc12` [Example 87, (2-(2-Aminopyrimidin-4-yl)-3-methylbenzo[b]thiophen-5-yl)(phenyl)methanone], the IC50 is above 5 µM in experiment [1] and below 5 µM in experiment [2].

Consider `Cc1c(-c2ccnc(N)n2)sc2ccc(-c3ccccc3)cc12` [Example 88, 4-(3-Methyl-5-phenylbenzo[b]thiophen-2-yl)pyrimidin-2-amine], for which the figures for the IC50 in experiment [1] and in experiment [2] were below 5 µM and above 5 µM, respectively.

As to `COc1cccc(C#Cc2ccc3sc(-c4ccnc(N)n4)c(C)c3c2)c1` [Example 89, 4-(5-((3-Methoxyphenyl)ethynyl)-3-methylbenzo[b]thiophen-2-yl)pyrimidin-2-amine], the IC50 in experiment [1] and in experiment [2] was above 5 µM each time.

With `COc1cccc(CCc2ccc3sc(-c4ccnc(N)n4)c(C)c3c2)c1` [Example 90, 4-(5-(3-Methoxyphenethyl)-3-methylbenzo[b]thiophen-2-yl)pyrimidin-2-amine], the 50% inhibitory concentration (IC50) in experiment [1] and in experiment [2] was above 5 µM throughout.

On to `Cc1c(-c2ccnc(N)n2)oc2ccc(Br)cc12` [Example 91, 4-(5-Bromo-3-methylbenzofuran-2-yl)pyrimidin-2-amine], for which the IC50 in experiment [1] and in experiment [2] was below 5 µM in each case.

With `Cc1c(-c2ccnc(N)n2)oc2ccc(Cc3cccc(O)c3)cc12` [Example 92, 3-((2-(2-Aminopyrimidin-4-yl)-3-methylbenzofuran-5-yl)methyl)phenol], the IC50 in experiment [1] and in experiment [2] was below 5 µM in each case.

`COc1cc(NC(=O)c2sc3nc(-c4ccncc4)ccc3c2N)cc(OC)c1OC` [Example 94]: the IC50 in experiment [1] and in experiment [2] was below 5 µM throughout.

As to `CC(=O)NCc1ccc2sc(-c3ccnc(N)n3)c(C)c2c1` [Example 95, CC(═O)NCc1ccc2sc(c(C)c2c1)-c3ccnc(N)n3], the IC50 in experiment [1] and in experiment [2] was above 5 µM in each case.

On to `Cc1c(-c2ccnc(N)n2)sc2ccc(CNC(=O)C=O)cc12` [Example 96, Cc1c(sc2ccc(CNC(═O)C═O)cc12)-c3ccnc(N)n3], for which the IC50 in experiment [1] and in experiment [2] was above 5 µM each time.

In the case of `Cc1c(-c2ccnc(N)n2)sc2ccc(CNC(=O)CC#N)cc12` [Example 97, Cc1c(sc2ccc(CNC(═O)CC#N)cc12)-c3ccnc(N)n3], the IC50 in experiment [1] and in experiment [2] was below 5 µM throughout.

As to `Cc1c(-c2ccnc(N)n2)sc2ccc(CNC(=O)C(C)O)cc12` (stereo not shown) [Example 98, C[C](O)C(═O)NCc1ccc2sc(c(C)c2c1)-c3ccnc(N)n3], the figures for the IC50 in experiment [1] and in experiment [2] were above 5 µM and below 5 µM, respectively.

On to `CCC(=O)C(=O)NCc1ccc2sc(-c3ccnc(N)n3)c(C)c2c1` [Example 99, CCC(═O)C(═O)NCc1ccc2sc(c(C)c2c1)-c3ccnc(N)n3], for which the IC50 in experiment [1] and in experiment [2] was below 5 µM throughout.
